Earlier results, collected in patent US4729992A, “Cephalosporin esters, their production and use” (Tatsuo Chemical Ind., Ltd., priority 1984, dated 1988).

Columns and labels:
Settings in all cases: Antimicrobial Agent and Chemotherapy 14, 557-568 (1978)
[1] = test system: Staphylococcus aureus
[2] = test system: Escherichia coli
[3] = test system: Klebsiella pneumoniae
[4] = test system: Proteus vulgaris
[5] = test system: Proteus mirabilis
[6] = test system: Proteus morganii

Measured: antibacterial activity

CN(C)CCn1nnnc1SCC1=C(C(=O)O)N2C(=O)[C@@H](NC(=O)Cc3csc(N)n3)[C@H]2SC1 [compound [II], 7β-[2-(2-aminothiazol-4-yl)acetamido]3-[[[1-(2-dimethylaminoethyl)-1H-tetrazol-5-yl]thio]methyl]ceph-3-em-4-carboxylic acid]
potent antibacterial activity: all assays above
